Experimental data taken from patent US7109213B2, “Aminopiperidine compounds, process for their preparation, and pharmaceutical compositions containing them” (Glaxo Group Limited, priority 2002, dated 2006).

Columns and labels:
Assay in all cases: MIC of test compounds against various organisms
Type in all cases: cell-based
[1] = system: S. pyogenes CN10; details: Streptococcus pyogenes, range stated for all organisms of the panel
Description: (§1) The MIC (μg/ml) of test compounds against various organisms may be determined: S. epidermidis CL7, S. aureus WCUH29, S. pneumoniae 1629, S. pyogenes CN10, H. influenzae ATCC49247, E.faecalis 2, E. faecium 8, M. catarrhalis Ravisio, E. coli 7623.

[2] = system: H. influenzae ATCC49247; details: Haemophilus influenzae, range stated for all organisms of the panel
Description: as §1

[3] = system: E. coli 7623; details: Escherichia coli, range stated for all organisms of the panel
Description: as §1

[4] = system: S. epidermidis CL7; details: Staphylococcus epidermidis, range stated for all organisms of the panel
Description: as §1

[5] = system: S. aureus WCUH29; details: Staphylococcus aureus, range stated for all organisms of the panel
Description: as §1

[6] = system: M. catarrhalis Ravisio; details: Moraxella catarrhalis, range stated for all organisms of the panel
Description: as §1

[7] = system: E.faecalis 2; details: Enterococcus faecalis, range stated for all organisms of the panel
Description: as §1

[8] = system: S. pneumoniae 1629; details: Streptococcus pneumoniae, range stated for all organisms of the panel
Description: as §1

[9] = system: E. faecium 8; details: Enterococcus faecium, range stated for all organisms of the panel
Description: as §1

Measured: MIC

COc1ccc2nccc([C@@H](O)CN3CCC(NCc4cnc5snnc5c4)C(F)C3)c2n1 (single isomer, unassigned) [Example 3]
0.06 to 16 µg/mL: all assays above
